Test results taken from PubChem BioAssay (NCI).
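Step 1: Grow cells in 96-well plates. Step 2: Expose to compound for 48 hours at 5 concentrations. Step 3: Interpolate endpoints linearly; if unreached, use highest concentration. GI50: concentration for 50% inhibition of growth. At the TGI there is no net growth.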

How the values were obtained:
Experiment in all cases: growth of human tumour cells (NCI), 48 h
786-0 renal = system: 786-0 renal
A498 renal = system: A498 renal
A549 NSCLC = system: A549 NSCLC
ACHN renal = system: ACHN renal
BT-549 breast = system: BT-549 breast
CAKI-1 renal = system: CAKI-1 renal
CCRF-CEM leukemia = system: CCRF-CEM leukemia
COLO 205 colon = system: COLO 205 colon
DU-145 prostate = system: DU-145 prostate
EKVX NSCLC = system: EKVX NSCLC
HCC-2998 colon = system: HCC-2998 colon
HCT-116 colon = system: HCT-116 colon
HCT-15 colon = system: HCT-15 colon
HL-60(TB) leukemia = system: HL-60(TB) leukemia
HOP-62 NSCLC = system: HOP-62 NSCLC
HOP-92 NSCLC = system: HOP-92 NSCLC
HS 578T breast = system: HS 578T breast
HT29 colon = system: HT29 colon
IGROV1 ovarian = system: IGROV1 ovarian
K-562 leukemia = system: K-562 leukemia
KM12 colon = system: KM12 colon
LOX IMVI melanoma = system: LOX IMVI melanoma
M14 melanoma = system: M14 melanoma
MALME-3M melanoma = system: MALME-3M melanoma
MCF7 breast = system: MCF7 breast
MDA-MB-231 breast = system: MDA-MB-231 breast
MDA-MB-435 = system: MDA-MB-435
MOLT-4 leukemia = system: MOLT-4 leukemia
NCI-H226 lung = system: NCI-H226 lung

Compound: CCCCN(CCCC)CC(C)(C)C(O)c1ccc(OC)c2ccccc12 (configuration not stated)
- GI50 (786-0 renal): 10 µM
- TGI (786-0 renal): 28 µM
- GI50 (A498 renal): 4.27 µM
- TGI (A498 renal): 22.9 µM
- GI50 (A549 NSCLC): 11.1 µM
- TGI (A549 NSCLC): 35.3 µM
- GI50 (ACHN renal): 3.96 µM
- TGI (ACHN renal): 16 µM
- GI50 (BT-549 breast): 12.1 µM
- TGI (BT-549 breast): 30.3 µM
- GI50 (CAKI-1 renal): 3.06 µM
- TGI (CAKI-1 renal): 16 µM
- GI50 (CCRF-CEM leukemia): 5.13 µM
- TGI (CCRF-CEM leukemia): 26.7 µM
- GI50 (COLO 205 colon): 3.1 µM
- TGI (COLO 205 colon): 15.8 µM
- GI50 (DU-145 prostate): 10.2 µM
- TGI (DU-145 prostate): 52.3 µM
- GI50 (EKVX NSCLC): 4.24 µM
- TGI (EKVX NSCLC): 22.9 µM
- GI50 (HCC-2998 colon): 3.69 µM
- TGI (HCC-2998 colon): 12 µM
- GI50 (HCT-116 colon): 1.08 µM
- TGI (HCT-116 colon): 10.8 µM
- GI50 (HCT-15 colon): 3.88 µM
- TGI (HCT-15 colon): 16.5 µM
- GI50 (HL-60(TB) leukemia): 2.98 µM
- TGI (HL-60(TB) leukemia): 15.8 µM
- GI50 (HOP-62 NSCLC): 6.5 µM
- TGI (HOP-62 NSCLC): 20.6 µM
- GI50 (HOP-92 NSCLC): 3.11 µM
- TGI (HOP-92 NSCLC): 8.81 µM
- GI50 (HS 578T breast): 4.55 µM
- TGI (HS 578T breast): 27 µM
- GI50 (HT29 colon): 0.875 µM
- TGI (HT29 colon): 13.4 µM
- GI50 (IGROV1 ovarian): 1.69 µM
- TGI (IGROV1 ovarian): 14.1 µM
- GI50 (K-562 leukemia): 2.51 µM
- TGI (K-562 leukemia): 13.6 µM
- GI50 (KM12 colon): 3.31 µM
- TGI (KM12 colon): 16.5 µM
- GI50 (LOX IMVI melanoma): 5.53 µM
- TGI (LOX IMVI melanoma): 19.4 µM
- GI50 (M14 melanoma): 4.21 µM
- TGI (M14 melanoma): 17.7 µM
- GI50 (MALME-3M melanoma): 3.02 µM
- TGI (MALME-3M melanoma): 16.6 µM
- GI50 (MCF7 breast): 3.55 µM
- TGI (MCF7 breast): 15.4 µM
- GI50 (MDA-MB-231 breast): 6.76 µM
- TGI (MDA-MB-231 breast): 21.9 µM
- GI50 (MDA-MB-435): 5.05 µM
- TGI (MDA-MB-435): 28.6 µM
- GI50 (MOLT-4 leukemia): 2.68 µM
- TGI (MOLT-4 leukemia): 11.7 µM
- GI50 (NCI-H226 lung): 2.42 µM
